Results: BindingDB's records for doi:10.1021/jm00007a020 (Eastern Michigan University, 1995)
Square brackets hold non-standard residues; d marks the D form. Peptide text beside a SMILES is read from it. Ala(4-thiazolyl) = N[C@@H](Cc1cscn1)C(=O)O; 2Pal = N[C@@H](Cc1ccccn1)C(=O)O; 3Pal = N[C@@H](Cc1cccnc1)C(=O)O; 2Thi = N[C@@H](Cc1cccs1)C(=O)O

Assay: Inhibition of [3H]- DPDPE binding to delta opioid receptor of guinea pig brain

Compound	Ki [µM]
Cc1ccc(C[C@H](NC(=O)[C@H](C)NC(=O)[C@@H](N)Cc2ccc(O)cc2)C(=O)N[C@@H](CC(=O)O)C(=O)N[C@H](C(=O)N[C@H](C(=O)NCC(N)=O)C(C)C)C(C)C)cc1 [(S)-3-((S)-2-{(S)-2-[(S)-2-Amino-3-(4-hydroxy-phenyl)-propionylamino]-propionylamino}-3-p-tolyl-propionylamino)-N-{(S)-1-[(S)-1-(carbamoylmethyl-carbamoyl)-2-methyl-propylcarbamoyl]-2-methyl-propyl}-succinamic acid]	2.65
CC(C)[C@H](NC(=O)[C@H](CC(=O)O)NC(=O)[C@H](Cc1c(F)c(F)c(F)c(F)c1F)NC(=O)[C@H](C)NC(=O)[C@@H](N)Cc1ccc(O)cc1)C(=O)N[C@H](C(=O)NCC(N)=O)C(C)C [(S)-3-((S)-2-{(S)-2-[(S)-2-Amino-3-(4-hydroxy-phenyl)-propionylamino]-propionylamino}-3-pentafluorophenyl-propionylamino)-N-{(S)-1-[(S)-1-(carbamoylmethyl-carbamoyl)-2-methyl-propylcarbamoyl]-2-methyl-propyl}-succinamic acid]	0.135
Cc1c(C)c(C)c(C[C@H](NC(=O)[C@H](C)NC(=O)[C@@H](N)Cc2ccc(O)cc2)C(=O)N[C@@H](CC(=O)O)C(=O)N[C@H](C(=O)N[C@H](C(=O)NCC(N)=O)C(C)C)C(C)C)c(C)c1C [(S)-3-((S)-2-{(S)-2-[(S)-2-Amino-3-(4-hydroxy-phenyl)-propionylamino]-propionylamino}-3-pentamethylphenyl-propionylamino)-N-{(S)-1-[(S)-1-(carbamoylmethyl-carbamoyl)-2-methyl-propylcarbamoyl]-2-methyl-propyl}-succinamic acid]	10
CC(C)[C@H](NC(=O)[C@H](CC(=O)O)NC(=O)[C@H](Cc1ccccn1)NC(=O)[C@H](C)NC(=O)[C@@H](N)Cc1ccc(O)cc1)C(=O)N[C@H](C(=O)NCC(N)=O)C(C)C [(S)-3-((S)-2-{(S)-2-[(S)-2-Amino-3-(4-hydroxy-phenyl)-propionylamino]-propionylamino}-3-pyridin-2-yl-propionylamino)-N-{(S)-1-[(S)-1-(carbamoylmethyl-carbamoyl)-2-methyl-propylcarbamoyl]-2-methyl-propyl}-succinamic acid] (H-YA[2Pal]DVVG-NH2)	0.062
CC(C)[C@H](NC(=O)[C@H](CC(=O)O)NC(=O)[C@H](Cc1cccnc1)NC(=O)[C@H](C)NC(=O)[C@@H](N)Cc1ccc(O)cc1)C(=O)N[C@H](C(=O)NCC(N)=O)C(C)C [(S)-3-((S)-2-{(S)-2-[(S)-2-Amino-3-(4-hydroxy-phenyl)-propionylamino]-propionylamino}-3-pyridin-3-yl-propionylamino)-N-{(S)-1-[(S)-1-(carbamoylmethyl-carbamoyl)-2-methyl-propylcarbamoyl]-2-methyl-propyl}-succinamic acid] (H-YA[3Pal]DVVG-NH2)	0.05
CC(C)[C@H](NC(=O)[C@H](CC(=O)O)NC(=O)[C@H](Cc1cscn1)NC(=O)[C@H](C)NC(=O)[C@@H](N)Cc1ccc(O)cc1)C(=O)N[C@H](C(=O)NCC(N)=O)C(C)C [(S)-3-((S)-2-{(S)-2-[(S)-2-Amino-3-(4-hydroxy-phenyl)-propionylamino]-propionylamino}-3-thiazol-4-yl-propionylamino)-N-{(S)-1-[(S)-1-(carbamoylmethyl-carbamoyl)-2-methyl-propylcarbamoyl]-2-methyl-propyl}-succinamic acid] (H-YA[Ala(4-thiazolyl)]DVVG-NH2)	0.04
CC(C)[C@H](NC(=O)[C@H](CC(=O)O)NC(=O)[C@H](Cc1cccs1)NC(=O)[C@H](C)NC(=O)[C@@H](N)Cc1ccc(O)cc1)C(=O)N[C@H](C(=O)NCC(N)=O)C(C)C [(S)-3-((S)-2-{(S)-2-[(S)-2-Amino-3-(4-hydroxy-phenyl)-propionylamino]-propionylamino}-3-thiophen-2-yl-propionylamino)-N-{(S)-1-[(S)-1-(carbamoylmethyl-carbamoyl)-2-methyl-propylcarbamoyl]-2-methyl-propyl}-succinamic acid] (H-YA[2Thi]DVVG-NH2)	0.0014
CC(C)[C@H](NC(=O)[C@H](CC(=O)O)NC(=O)[C@H](Cc1cccc(F)c1)NC(=O)[C@H](C)NC(=O)[C@@H](N)Cc1ccc(O)cc1)C(=O)N[C@H](C(=O)NCC(N)=O)C(C)C [(S)-3-[(S)-2-{(S)-2-[(S)-2-Amino-3-(4-hydroxy-phenyl)-propionylamino]-propionylamino}-3-(3-fluoro-phenyl)-propionylamino]-N-{(S)-1-[(S)-1-(carbamoylmethyl-carbamoyl)-2-methyl-propylcarbamoyl]-2-methyl-propyl}-succinamic acid]	0.0736
CC(C)[C@H](NC(=O)[C@H](CC(=O)O)NC(=O)[C@H](Cc1ccc(F)cc1)NC(=O)[C@H](C)NC(=O)[C@@H](N)Cc1ccc(O)cc1)C(=O)N[C@H](C(=O)NCC(N)=O)C(C)C [(S)-3-[(S)-2-{(S)-2-[(S)-2-Amino-3-(4-hydroxy-phenyl)-propionylamino]-propionylamino}-3-(4-fluoro-phenyl)-propionylamino]-N-{(S)-1-[(S)-1-(carbamoylmethyl-carbamoyl)-2-methyl-propylcarbamoyl]-2-methyl-propyl}-succinamic acid]	0.703
H-YAHDVVG-NH2 [(S)-3-[(S)-2-{(S)-2-[(S)-2-Amino-3-(4-hydroxy-phenyl)-propionylamino]-propionylamino}-3-(3H-imidazol-4-yl)-propionylamino]-N-{(S)-1-[(S)-1-(carbamoylmethyl-carbamoyl)-2-methyl-propylcarbamoyl]-2-methyl-propyl}-succinamic acid]	0.317
